Source: ChEMBL document CHEMBL3734671, “Design and synthesis of an in vivo-efficacious PIM3 kinase inhibitor as a candidate anti-pancreatic cancer agent” (Bioorg Med Chem Lett, 2015)

Key:
[1] = Growth inhibition of human PCI35 cells after 72 hrs by CCK-8 assay; assay type: functional, cell-based; settings: PCI35, 72 h
[2] = molecular target: Epidermal growth factor receptor (Homo sapiens) (UniProt P00533); assay: Inhibition of EGFR (unknown origin) at 200 nM by electrophoretic mobility shift assay
[3] = molecular target: Protein kinase C alpha type (Homo sapiens) (UniProt P17252); assay: Inhibition of PKCalpha (unknown origin) at 200 nM by electrophoretic mobility shift assay
[4] = molecular target: T1, Death-associated protein kinase 1 (Homo sapiens, UniProt P53355); assay: Inhibition of DAPK1 (unknown origin) at 200 nM by electrophoretic mobility shift assay
[5] = molecular target: T2, Serine/threonine-protein kinase pim-1 (Homo sapiens, UniProt P11309); assay: Inhibition of PIM1 (unknown origin) by electrophoretic mobility shift assay
[6] = molecular target: CDK2/Cyclin A2 (Homo sapiens) (UniProt P24941+P20248); assay: Inhibition of CDK2/CycA2 (unknown origin) at 200 nM by electrophoretic mobility shift assay; assay type: protein-complex assay
[7] = Antitumor activity against human PCI66 cells xenografted in BALB/c nu/nu mouse assessed as reduction in tumor volume at 30 mg/kg, ip qd dosed for 5 days followed by 2 days cessation measured 33 days after tumor inoculation relative to control; assay type: functional
[8] = molecular target: Platelet-derived growth factor receptor alpha (Homo sapiens) (UniProt P16234); assay: Inhibition of PDGFRalpha (unknown origin) at 200 nM by electrophoretic mobility shift assay
[9] = molecular target: Tyrosine-protein kinase CSK (Homo sapiens) (UniProt P41240); assay: Inhibition of CSK (unknown origin) at 200 nM by electrophoretic mobility shift assay
[10] = Growth inhibition of human L3.6PL cells after 72 hrs by CCK-8 assay; assay type: functional
[11] = molecular target: Angiopoietin-1 receptor (Homo sapiens) (UniProt Q02763); assay: Inhibition of TIE2 (unknown origin) at 200 nM by electrophoretic mobility shift assay
[12] = molecular target: Casein kinase I isoform epsilon (Homo sapiens) (UniProt P49674); assay: Inhibition of CK1 epsilon (unknown origin) at 200 nM by electrophoretic mobility shift assay
[13] = molecular target: Serine/threonine-protein kinase PAK 4 (Homo sapiens) (UniProt O96013); assay: Inhibition of PAK4 (unknown origin) at 200 nM by electrophoretic mobility shift assay
[14] = Growth inhibition of human PCI66 cells after 72 hrs by CCK-8 assay; assay type: functional, cell-based; settings: PCI66, 72 h
[15] = molecular target: Inhibitor of nuclear factor kappa-B kinase subunit beta (Homo sapiens) (UniProt O14920); assay: Inhibition of IKKbeta (unknown origin) at 200 nM by electrophoretic mobility shift assay
[16] = molecular target: T3, Glycogen synthase kinase-3 beta (Homo sapiens, UniProt P49841); assay: Inhibition of GSK3beta (unknown origin) by electrophoretic mobility shift assay
[17] = molecular target: T2, Serine/threonine-protein kinase pim-1; assay: Inhibition of PIM1 (unknown origin) at 200 nM by electrophoretic mobility shift assay
Target sequence in this assay (P11309 whole entry, looked up): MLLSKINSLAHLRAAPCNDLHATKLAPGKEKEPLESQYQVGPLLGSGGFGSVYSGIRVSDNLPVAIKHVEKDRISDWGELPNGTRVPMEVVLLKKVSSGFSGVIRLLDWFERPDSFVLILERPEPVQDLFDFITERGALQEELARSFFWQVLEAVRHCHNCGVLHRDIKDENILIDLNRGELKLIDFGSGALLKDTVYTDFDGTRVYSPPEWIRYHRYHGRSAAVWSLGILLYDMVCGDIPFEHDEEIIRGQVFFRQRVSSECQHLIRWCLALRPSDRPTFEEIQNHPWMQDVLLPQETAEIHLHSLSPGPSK

[18] = molecular target: Aurora kinase A (Homo sapiens) (UniProt O14965); assay: Inhibition of AurA (unknown origin) at 200 nM by electrophoretic mobility shift assay
[19] = molecular target: Tyrosine-protein kinase Lck (Homo sapiens) (UniProt P06239); assay: Inhibition of LCK (unknown origin) at 200 nM by electrophoretic mobility shift assay
[20] = molecular target: Serine/threonine-protein kinase 4 (Homo sapiens) (UniProt Q13043); assay: Inhibition of MST1 (unknown origin) at 200 nM by electrophoretic mobility shift assay
[21] = molecular target: Ephrin type-A receptor 2 (Homo sapiens) (UniProt P29317); assay: Inhibition of EPHA2 (unknown origin) at 200 nM by electrophoretic mobility shift assay
[22] = molecular target: Rho-associated protein kinase 1 (Homo sapiens) (UniProt Q13464); assay: Inhibition of ROCK1 (unknown origin) at 200 nM by electrophoretic mobility shift assay
[23] = molecular target: Serine/threonine-protein kinase Nek2 (Homo sapiens) (UniProt P51955); assay: Inhibition of NEK2 (unknown origin) at 200 nM by electrophoretic mobility shift assay
Mus musculus = assay: Toxicity in BALB/c nu/nu mouse xenografted with human PCI66 cells assessed as affect on body weight at 30 mg/kg, ip qd dosed for 5 days followed by 2 days cessation measured 33 days after tumor inoculation; assay type: organism-based; settings: in vivo, 792 h
[24] = molecular target: Vascular endothelial growth factor receptor 2 (Homo sapiens) (UniProt P35968); assay: Inhibition of KDR (unknown origin) at 200 nM by electrophoretic mobility shift assay
[25] = molecular target: T3, Glycogen synthase kinase-3 beta; assay: Inhibition of GSK3beta (unknown origin) at 200 nM by electrophoretic mobility shift assay
[26] = Growth inhibition of human MIAPaCa2 cells after 72 hrs by CCK-8 assay; assay type: functional, cell-based; settings: MIA PaCa-2, 72 h
[27] = molecular target: Insulin-like growth factor 1 receptor (Homo sapiens) (UniProt P08069); assay: Inhibition of IGF1R (unknown origin) at 200 nM by electrophoretic mobility shift assay
[28] = molecular target: T1, Death-associated protein kinase 1; assay: Inhibition of DAPK1 (unknown origin) by electrophoretic mobility shift assay
CYP1A2 = molecular target: T4, CYP1A2 (Homo sapiens, UniProt P05177); assay: Inhibition of CYP1A2 (unknown origin) at 10 uM; assay type: ADME
T4 sequence (P05177 whole entry): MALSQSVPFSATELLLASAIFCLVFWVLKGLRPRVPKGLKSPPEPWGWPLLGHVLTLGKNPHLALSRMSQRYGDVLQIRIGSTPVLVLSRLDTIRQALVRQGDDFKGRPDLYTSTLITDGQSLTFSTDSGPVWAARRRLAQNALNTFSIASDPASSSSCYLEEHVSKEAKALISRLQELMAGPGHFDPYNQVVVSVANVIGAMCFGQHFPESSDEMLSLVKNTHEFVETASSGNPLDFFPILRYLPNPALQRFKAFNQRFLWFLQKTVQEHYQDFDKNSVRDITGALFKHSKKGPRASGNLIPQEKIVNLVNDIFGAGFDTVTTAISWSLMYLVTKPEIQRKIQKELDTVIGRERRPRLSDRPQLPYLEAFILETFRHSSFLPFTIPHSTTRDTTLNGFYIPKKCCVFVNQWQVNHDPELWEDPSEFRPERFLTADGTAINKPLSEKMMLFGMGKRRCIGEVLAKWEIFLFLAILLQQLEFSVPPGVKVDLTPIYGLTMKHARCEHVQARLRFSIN

[29] = molecular target: Tyrosine-protein kinase receptor TYRO3 (Homo sapiens) (UniProt Q06418); assay: Inhibition of TYRO3 (unknown origin) at 200 nM by electrophoretic mobility shift assay
[30] = molecular target: MAP kinase-activated protein kinase 2 (Homo sapiens) (UniProt P49137); assay: Inhibition of MAPKAPK2 (unknown origin) at 200 nM by electrophoretic mobility shift assay

Chain of Platelet-derived growth factor receptor alpha (Homo sapiens) (P16234 whole entry): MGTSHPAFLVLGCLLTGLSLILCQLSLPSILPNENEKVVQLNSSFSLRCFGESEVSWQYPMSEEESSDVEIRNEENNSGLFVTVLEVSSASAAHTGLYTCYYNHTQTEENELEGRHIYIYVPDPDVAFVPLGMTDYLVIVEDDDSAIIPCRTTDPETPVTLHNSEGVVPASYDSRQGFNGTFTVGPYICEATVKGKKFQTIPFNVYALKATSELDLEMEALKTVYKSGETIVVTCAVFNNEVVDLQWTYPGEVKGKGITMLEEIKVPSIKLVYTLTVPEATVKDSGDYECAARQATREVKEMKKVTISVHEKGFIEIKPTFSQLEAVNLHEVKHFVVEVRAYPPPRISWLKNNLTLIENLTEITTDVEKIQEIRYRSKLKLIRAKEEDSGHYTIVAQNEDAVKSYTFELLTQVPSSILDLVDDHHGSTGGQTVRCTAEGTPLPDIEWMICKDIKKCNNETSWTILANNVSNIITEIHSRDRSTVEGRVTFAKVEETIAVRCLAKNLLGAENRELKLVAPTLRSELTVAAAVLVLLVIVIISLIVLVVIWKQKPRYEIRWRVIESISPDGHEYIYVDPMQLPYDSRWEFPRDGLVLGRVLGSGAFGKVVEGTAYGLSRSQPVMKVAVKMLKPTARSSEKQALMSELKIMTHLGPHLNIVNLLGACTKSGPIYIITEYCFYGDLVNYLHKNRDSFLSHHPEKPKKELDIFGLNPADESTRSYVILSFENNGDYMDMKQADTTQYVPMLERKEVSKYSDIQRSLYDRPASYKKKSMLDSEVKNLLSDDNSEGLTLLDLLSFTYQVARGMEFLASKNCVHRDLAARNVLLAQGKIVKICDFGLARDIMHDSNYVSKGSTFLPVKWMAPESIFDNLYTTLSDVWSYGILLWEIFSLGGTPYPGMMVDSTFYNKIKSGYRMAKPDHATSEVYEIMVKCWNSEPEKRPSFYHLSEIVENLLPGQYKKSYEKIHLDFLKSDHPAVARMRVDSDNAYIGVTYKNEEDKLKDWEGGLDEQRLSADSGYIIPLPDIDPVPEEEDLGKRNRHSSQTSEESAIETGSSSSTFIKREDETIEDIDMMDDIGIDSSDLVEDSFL
Chain of Epidermal growth factor receptor (Homo sapiens) (P00533 whole entry): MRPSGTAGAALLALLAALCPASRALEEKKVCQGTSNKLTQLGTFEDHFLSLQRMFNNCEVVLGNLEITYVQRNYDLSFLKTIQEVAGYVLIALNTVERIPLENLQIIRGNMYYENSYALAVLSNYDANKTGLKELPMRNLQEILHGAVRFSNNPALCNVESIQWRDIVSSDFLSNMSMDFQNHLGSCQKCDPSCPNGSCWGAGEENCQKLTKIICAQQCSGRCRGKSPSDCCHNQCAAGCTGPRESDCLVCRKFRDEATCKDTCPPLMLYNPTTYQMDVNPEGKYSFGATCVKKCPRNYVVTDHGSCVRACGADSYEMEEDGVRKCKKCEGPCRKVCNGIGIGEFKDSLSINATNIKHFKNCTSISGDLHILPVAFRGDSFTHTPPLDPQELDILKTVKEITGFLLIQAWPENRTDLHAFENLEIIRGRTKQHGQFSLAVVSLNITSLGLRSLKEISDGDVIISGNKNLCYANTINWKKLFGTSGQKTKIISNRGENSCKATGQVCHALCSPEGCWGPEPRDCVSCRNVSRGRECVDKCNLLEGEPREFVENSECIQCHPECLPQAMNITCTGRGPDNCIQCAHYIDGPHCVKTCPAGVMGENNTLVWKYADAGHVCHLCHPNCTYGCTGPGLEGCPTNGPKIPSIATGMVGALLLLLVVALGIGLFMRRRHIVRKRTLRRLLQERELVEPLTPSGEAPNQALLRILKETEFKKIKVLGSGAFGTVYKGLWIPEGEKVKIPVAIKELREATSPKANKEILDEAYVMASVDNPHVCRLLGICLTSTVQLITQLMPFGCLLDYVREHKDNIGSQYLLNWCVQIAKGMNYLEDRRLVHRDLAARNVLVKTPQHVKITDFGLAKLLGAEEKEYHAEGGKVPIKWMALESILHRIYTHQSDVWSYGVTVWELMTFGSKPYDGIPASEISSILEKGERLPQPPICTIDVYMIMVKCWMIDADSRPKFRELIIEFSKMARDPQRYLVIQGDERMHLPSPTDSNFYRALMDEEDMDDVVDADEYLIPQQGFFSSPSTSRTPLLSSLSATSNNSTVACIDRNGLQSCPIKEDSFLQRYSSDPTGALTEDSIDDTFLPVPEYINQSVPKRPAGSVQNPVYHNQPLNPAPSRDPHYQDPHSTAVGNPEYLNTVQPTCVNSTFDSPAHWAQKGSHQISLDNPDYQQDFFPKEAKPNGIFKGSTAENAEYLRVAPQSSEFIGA
Chain of Angiopoietin-1 receptor (Homo sapiens) (Q02763 whole entry, canonical isoform): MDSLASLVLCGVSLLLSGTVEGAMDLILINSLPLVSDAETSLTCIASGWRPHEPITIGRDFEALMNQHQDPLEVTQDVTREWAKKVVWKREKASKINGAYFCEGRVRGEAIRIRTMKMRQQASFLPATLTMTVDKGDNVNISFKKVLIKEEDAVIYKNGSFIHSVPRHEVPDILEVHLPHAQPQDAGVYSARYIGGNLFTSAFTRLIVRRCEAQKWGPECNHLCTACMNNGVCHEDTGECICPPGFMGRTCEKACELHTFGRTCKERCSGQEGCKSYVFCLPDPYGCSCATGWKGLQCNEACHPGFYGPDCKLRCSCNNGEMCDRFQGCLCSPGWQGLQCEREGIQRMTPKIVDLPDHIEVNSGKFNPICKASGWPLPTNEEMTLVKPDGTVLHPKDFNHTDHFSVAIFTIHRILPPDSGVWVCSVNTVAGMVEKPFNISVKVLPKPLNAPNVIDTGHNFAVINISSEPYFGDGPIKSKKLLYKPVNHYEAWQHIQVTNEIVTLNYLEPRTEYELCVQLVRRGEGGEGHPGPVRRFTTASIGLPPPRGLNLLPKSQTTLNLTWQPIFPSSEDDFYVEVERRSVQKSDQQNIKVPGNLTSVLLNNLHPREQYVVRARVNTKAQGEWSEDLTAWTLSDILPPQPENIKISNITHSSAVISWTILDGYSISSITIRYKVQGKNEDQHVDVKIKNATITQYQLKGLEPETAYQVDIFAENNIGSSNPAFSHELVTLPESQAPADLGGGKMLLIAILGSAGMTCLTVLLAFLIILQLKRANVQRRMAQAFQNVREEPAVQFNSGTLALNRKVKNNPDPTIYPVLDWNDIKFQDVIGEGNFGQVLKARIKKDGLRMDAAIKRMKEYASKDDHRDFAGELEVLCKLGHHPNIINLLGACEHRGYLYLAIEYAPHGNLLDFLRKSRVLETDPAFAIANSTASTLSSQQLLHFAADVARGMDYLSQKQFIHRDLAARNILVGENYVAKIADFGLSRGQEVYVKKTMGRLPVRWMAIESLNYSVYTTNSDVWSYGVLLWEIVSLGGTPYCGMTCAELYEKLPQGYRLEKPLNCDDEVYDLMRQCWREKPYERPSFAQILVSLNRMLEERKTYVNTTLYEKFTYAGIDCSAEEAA
Chain of Insulin-like growth factor 1 receptor (Homo sapiens) (P08069 31-736 limits assumed): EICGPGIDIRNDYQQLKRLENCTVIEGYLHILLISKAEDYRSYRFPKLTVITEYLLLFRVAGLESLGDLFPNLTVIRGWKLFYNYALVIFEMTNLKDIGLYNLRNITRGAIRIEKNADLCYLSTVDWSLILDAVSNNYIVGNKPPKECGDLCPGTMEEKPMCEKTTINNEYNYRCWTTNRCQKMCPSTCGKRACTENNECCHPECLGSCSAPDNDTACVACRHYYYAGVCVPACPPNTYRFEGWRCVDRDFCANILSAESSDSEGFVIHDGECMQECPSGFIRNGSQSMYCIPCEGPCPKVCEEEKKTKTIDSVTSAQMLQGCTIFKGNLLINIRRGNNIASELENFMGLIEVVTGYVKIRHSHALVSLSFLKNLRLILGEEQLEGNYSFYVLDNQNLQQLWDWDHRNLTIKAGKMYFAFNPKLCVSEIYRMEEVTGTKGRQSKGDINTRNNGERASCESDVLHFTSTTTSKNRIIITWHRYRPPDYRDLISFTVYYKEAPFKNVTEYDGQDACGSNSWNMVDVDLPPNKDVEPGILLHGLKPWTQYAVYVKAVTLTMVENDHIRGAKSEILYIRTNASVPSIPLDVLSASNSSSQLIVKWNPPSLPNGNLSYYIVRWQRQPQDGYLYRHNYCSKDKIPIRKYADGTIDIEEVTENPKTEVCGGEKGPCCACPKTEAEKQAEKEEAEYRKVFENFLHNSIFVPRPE
Chain of Insulin-like growth factor 1 receptor (Homo sapiens) (P08069 741-1367 limits assumed): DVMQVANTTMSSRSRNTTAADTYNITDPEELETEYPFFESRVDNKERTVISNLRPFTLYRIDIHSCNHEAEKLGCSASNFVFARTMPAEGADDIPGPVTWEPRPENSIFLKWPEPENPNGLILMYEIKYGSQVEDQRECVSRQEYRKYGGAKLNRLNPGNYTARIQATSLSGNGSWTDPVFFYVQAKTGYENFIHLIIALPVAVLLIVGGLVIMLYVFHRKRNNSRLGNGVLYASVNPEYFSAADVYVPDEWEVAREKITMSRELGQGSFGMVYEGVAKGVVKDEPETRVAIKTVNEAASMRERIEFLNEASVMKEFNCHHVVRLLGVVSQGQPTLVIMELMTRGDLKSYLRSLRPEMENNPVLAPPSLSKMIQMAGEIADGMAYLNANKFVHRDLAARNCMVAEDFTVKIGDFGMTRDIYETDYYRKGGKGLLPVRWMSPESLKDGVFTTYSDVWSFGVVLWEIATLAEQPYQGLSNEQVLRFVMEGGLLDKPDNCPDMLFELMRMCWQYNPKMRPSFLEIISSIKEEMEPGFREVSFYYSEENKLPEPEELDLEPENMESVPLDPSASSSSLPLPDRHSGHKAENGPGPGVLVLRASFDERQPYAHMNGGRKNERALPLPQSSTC

Compound | inhibition [2] [%] | inhibition [3] [%] | inhibition [4] [%] | inhibition [6] [%] | inhibition [8] [%] | inhibition [9] [%] | inhibition [11] [%] | inhibition [12] [%] | inhibition [13] [%] | inhibition [15] [%] | inhibition [17] [%] | inhibition [18] [%] | inhibition [19] [%] | inhibition [20] [%] | inhibition [21] [%] | inhibition [22] [%] | inhibition [23] [%] | inhibition [24] [%] | inhibition [25] [%] | inhibition [27] [%] | further results
COc1ccc2c(c1C(C)N1CCNCC1)O/C(=C\c1n[nH]c3ncccc13)C2=O (centres undefined) | -1 | 83.6 | 94.9 | 13.7 | 24.2 | 0.9 | 0.8 | -0.5 | -6.7 | -2.8 | 99.4 | -0.4 | 0.1 | -7.4 | -0.3 | 77 | -4 | 2 | 95 | 1.1 | IC50 [1]: 5.1 µM; IC50 [5]: 0.0019 µM; inhibition in vivo at 30 mg/kg [7]: 52.5%; IC50 [10]: 6.3 µM; IC50 [14]: 3.8 µM; IC50 [16]: 0.0061 µM; Activity (Mus musculus): Non-toxic; IC50 [26]: 3.5 µM; IC50 [28]: 0.012 µM; inhibition at 10 µM (CYP1A2): 2%; inhibition [29]: 3.5%
COc1ccc2c(c1CN1CCNCC1)O/C(=C\c1n[nH]c3ncccc13)C2=O | -8 | 82.5 | 80.5 | 28.2 | 5.4 | -5.8 | 0 | 3.1 | 13 | 4.1 | 102 | 5.1 | -5.2 | -2.3 | -2.2 | 88.9 | -2.1 | -5 | 76.5 | -3 | inhibition [30]: -1.2%; inhibition at 10 µM (CYP1A2): 33%; inhibition [29]: -2.7%
